# The supplement of paper PMC10307832
# Legend:
# Assay in all cases: relative viability (nuclei count vs DMSO), 5 days (fraction); higher = more cells survive
# RO-3306 + Tozasertib = compound: C1=CC2=C(C=CC(=C2)C=C3C(=O)NC(=NCC4=CC=CS4)S3)N=C1 [RO-3306] + Cc1cc(Nc2cc(N3CCN(C)CC3)nc(Sc3ccc(NC(=O)C4CC4)cc3)n2)n[nH]1 [Tozasertib] (partner 0.1 µM)
# In short: (§1)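 Lung cancer cell lines were pin-tool dosed in 1536-well plates on the day after seeding, with either a lone drug or a fixed anchor-drug dose plus five library-drug doses (not always all listed) in √10 steps. Nuclei were counted on 4× images after 5 days. Relative viability is the ratio of treated-well to vehicle-well nuclei counts, with each value a median of duplicate plates.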
# [1] = compound: O=S(=O)(c1ccccc1)N(CC(F)(F)F)c1ccc(C(O)(C(F)(F)F)C(F)(F)F)cc1 + CC(=O)c1c(C)c2cnc(Nc3ccc(N4CCNCC4)cn3)nc2n(C2CCCC2)c1=O [Palbociclib] (partner 0.5 µM)
# In short: as §1
# Foretinib = compound: COc1cc2c(Oc3ccc(NC(=O)C4(C(=O)Nc5ccc(F)cc5)CC4)cc3F)ccnc2cc1OCCCN1CCOCC1 [Foretinib] (anchor plate); details: 0.25 µM
# In short: (§2)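 On vehicle-anchored 1536-well plates, lung cancer cell lines held overnight at 37 °C were pinned with five library-drug doses (not always all listed) spaced by √10. With no medium change over 5 days, they were then fixed, permeabilised and Hoechst-stained in one step and imaged at 4×. MetaXpress counted nuclei, and viability is the median across plates of treated-well over vehicle-well nuclei. Acceptance needed control CV below 25% and at least one doubling.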
# RO-3306 = compound: C1=CC2=C(C=CC(=C2)C=C3C(=O)NC(=NCC4=CC=CS4)S3)N=C1 [RO-3306]
# In short: as §2
# [2] = compound: O=S(=O)(c1ccccc1)N(CC(F)(F)F)c1ccc(C(O)(C(F)(F)F)C(F)(F)F)cc1
# In short: as §2
cell line,measurement,setting,value
UMC-11,relative viability,RO-3306 + Tozasertib; first compound 0.01 µM,0.174
same,relative viability,RO-3306 + Tozasertib; first compound 0.03162 µM,0.225
same,relative viability,RO-3306 + Tozasertib; first compound 0.1 µM,0.199
same,relative viability,RO-3306 + Tozasertib; first compound 0.3162 µM,0.213
same,relative viability,RO-3306 + Tozasertib; first compound 1 µM,0.194
same,relative viability,[1]; first compound 0.8 µM,0.339
same,relative viability,[1]; first compound 2.53 µM,0.346
same,relative viability,[1]; first compound 8 µM,0.311
same,relative viability,Foretinib,1.03
same,relative viability,RO-3306; 0.01 µM,1.09
same,relative viability,RO-3306; 0.03162 µM,0.855
same,relative viability,RO-3306; 0.1 µM,0.969
same,relative viability,RO-3306; 0.3162 µM,1.05
same,relative viability,RO-3306; 1 µM,0.828
same,relative viability,[2]; 0.8 µM,1.06
same,relative viability,[2]; 2.53 µM,0.985
same,relative viability,[2]; 8 µM,1.11
